Patent publication US9732075B2, “Benzimidazole-proline derivatives” (IDORSIA PHARMACEUTICALS LTD, priority 2012, dated 2017)

Legend:
human orexin-1 receptor = human orexin-1 receptor (Homo sapiens (Human), UniProt O43613); assay: In vitro assay: intracellular calcium measurements (FLIPR), antagonistic activity; type: cell-based; conditions: CHO cells expressing human orexin-1 receptor, orexin-A agonist, geometric mean, read-out: IC50 Ox1
Procedure: (§1) In Vitro Assay: Intracellular Calcium Measurements:
(§2) Chinese hamster ovary (CHO) cells expressing the human orexin-1 receptor and the human orexin-2 receptor, respectively, are grown in culture medium (Ham F-12 with L-Glutamine) containing 300 μg/ml G418, 100 U/ml penicillin, 100 μg/ml streptomycin and 10% heat inactivated fetal calf serum (FCS). The cells are seeded at 20,000 cells/well into 384-well black clear bottom sterile plates (Greiner). The seeded plates are incubated overnight at 37° C. in 5% CO2.
(§3) Human orexin-A as an agonist is prepared as 1 mM stock solution in MeOH: water (1:1), diluted in HBSS containing 0.1% bovine serum albumin (BSA), NaHCO3: 0.375 g/l and 20 mM HEPES for use in the assay at a final concentration of 3 nM.
(§4) Antagonists are prepared as 10 mM stock solution in DMSO, then diluted in 384-well plates using DMSO followed by a transfer of the dilutions into in HBSS containing 0.1% bovine serum albumin (BSA), NaHCO3: 0.375 g/l and 20 mM HEPES. On the day of the assay, 50 μl of staining buffer (HBSS containing 1% FCS, 20 mM HEPES, NaHCO3: 0.375 g/l, 5 mM probenecid (Sigma) and […] of the fluorescent calcium indicator fluo-4 AM (1 mM stock solution in DMSO, containing 10% pluronic) is added to each well. The 384-well cell-plates are incubated for 50 min at 37° C. in 5% CO2 followed by equilibration at RT for 30 min before measurement.
(§5) Within the Fluorescent Imaging Plate Reader (FLIPR Tetra, Molecular Devices), antagonists are added to the plate in a volume of 10 μl/well, incubated for 120 min and finally 10 μl/well of agonist is added. Fluorescence is measured for each well at 1 second intervals, and the height of each fluorescence peak is compared to the height of the fluorescence peak induced by an approximate EC70 (for example 5 nM) of orexin-A with vehicle in place of antagonist. The IC50 value (the concentration of compound needed to inhibit 50% of the agonistic response) is determined and may be normalized using the obtained IC50 value of a on-plate reference compound. Optimized conditions are achieved by adjustment of pipetting speed and cell splitting regime. The calculated IC50 values may fluctuate depending on the daily cellular assay performance. Fluctuations of this kind are known to those skilled in the art. Average IC50 values from several measurements are given as geometric mean values.

human orexin-2 receptor = human orexin-2 receptor (Homo sapiens (Human), UniProt O43614); assay: as above; type: cell-based; conditions: CHO cells expressing human orexin-2 receptor, orexin-A agonist, geometric mean, read-out: IC50 Ox2
Procedure: as §1, §2, §3, §4, §5

Chain of human orexin-2 receptor (O43614 whole entry): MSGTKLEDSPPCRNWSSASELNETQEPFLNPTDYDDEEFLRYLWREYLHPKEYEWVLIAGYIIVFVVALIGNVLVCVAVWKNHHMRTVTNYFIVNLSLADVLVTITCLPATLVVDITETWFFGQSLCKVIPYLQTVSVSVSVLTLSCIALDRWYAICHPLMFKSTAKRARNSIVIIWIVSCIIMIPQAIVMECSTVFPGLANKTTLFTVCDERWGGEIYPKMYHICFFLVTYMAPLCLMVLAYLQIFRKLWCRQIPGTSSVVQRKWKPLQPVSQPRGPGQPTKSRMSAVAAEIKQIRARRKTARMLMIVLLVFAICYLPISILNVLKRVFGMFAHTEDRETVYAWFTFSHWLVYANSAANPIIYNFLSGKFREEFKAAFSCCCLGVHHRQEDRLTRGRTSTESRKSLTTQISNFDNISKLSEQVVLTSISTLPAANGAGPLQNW
Chain of human orexin-1 receptor (O43613 whole entry): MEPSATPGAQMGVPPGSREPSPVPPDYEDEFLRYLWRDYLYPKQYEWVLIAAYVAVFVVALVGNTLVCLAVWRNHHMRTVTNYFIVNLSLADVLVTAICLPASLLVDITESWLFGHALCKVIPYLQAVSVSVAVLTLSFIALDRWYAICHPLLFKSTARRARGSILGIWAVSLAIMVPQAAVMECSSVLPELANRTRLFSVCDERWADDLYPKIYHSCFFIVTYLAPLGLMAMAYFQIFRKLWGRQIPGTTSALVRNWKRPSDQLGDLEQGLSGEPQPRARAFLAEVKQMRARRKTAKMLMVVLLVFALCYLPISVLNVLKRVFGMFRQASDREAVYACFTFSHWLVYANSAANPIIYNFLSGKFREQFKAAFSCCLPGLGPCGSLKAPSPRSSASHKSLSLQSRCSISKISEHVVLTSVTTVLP

Row | Compound | IC50 (human orexin-1 receptor) [nM] | IC50 (human orexin-2 receptor) [nM]
1 | Cc1cc(C)c2nc(C3CCCN3C(=O)c3nc(C)sc3-c3cccc(Cl)c3)[nH]c2c1 (racemic) [Ex. 1.102] | 17 | 17
2 | Cc1nc(C(=O)N2CCCC2c2nc3c4c(ccc3[nH]2)OCCO4)c(-c2cccc(Cl)c2)s1 (racemic) [Ex. 1.117] | 136 | 56
3 | COc1ccc2[nH]c([C@@H]3CCCN3C(=O)c3cc(C)ccc3-n3nccn3)nc2c1 [Ex. 1.2] | 349 | 7
4 | Cc1ccc(-n2nccn2)c(C(=O)N2CCC[C@H]2c2nc3cc(Cl)ccc3[nH]2)c1 [Ex. 1.3] | 265 | 51
5 | COc1cccc2nc([C@@H]3CCCN3C(=O)c3cc(C)ccc3-n3nccn3)[nH]c12 [Ex. 1.4] | 241 | 30
6 | CSc1cccc2nc([C@@H]3CCCN3C(=O)c3cc(C)ccc3-n3nccn3)[nH]c12 [Ex. 1.5] | 56 | 23
7 | Cc1ccc(-n2nccn2)c(C(=O)N2CCC[C@H]2c2nc3cccc(Cl)c3[nH]2)c1 [Ex. 1.6] | 202 | 46
8 | CSc1ccc2[nH]c([C@@H]3CCCN3C(=O)c3cc(C)ccc3-n3nccn3)nc2c1 [Ex. 1.7] | 93 | 5
9 | COc1ccc2[nH]c([C@@H]3CCCN3C(=O)c3nc(C)sc3-c3cccc(Cl)c3)nc2c1 [Ex. 1.9] | 337 | 69
10 | Cc1nc(C(=O)N2CCC[C@H]2c2nc3cc(Cl)ccc3[nH]2)c(-c2cccc(Cl)c2)s1 [Ex. 1.10] | 98 | 248
11 | COc1cccc2nc([C@@H]3CCCN3C(=O)c3nc(C)sc3-c3cccc(Cl)c3)[nH]c12 [Ex. 1.11] | 110 | 54
12 | Cc1nc(C(=O)N2CCC[C@H]2c2nc3c(O)cccc3[nH]2)c(-c2cccc(Cl)c2)s1 [Ex. 1.12] | 273 | 344
13 | CSc1cccc2nc([C@@H]3CCCN3C(=O)c3nc(C)sc3-c3cccc(Cl)c3)[nH]c12 [Ex. 1.13] | 15 | 24
14 | Cc1nc(C(=O)N2CCC[C@H]2c2nc3cccc(Cl)c3[nH]2)c(-c2cccc(Cl)c2)s1 [Ex. 1.14] | 34 | 32
15 | CSc1ccc2[nH]c([C@@H]3CCCN3C(=O)c3nc(C)sc3-c3cccc(Cl)c3)nc2c1 [Ex. 1.15] | 67 | 45
16 | COc1ccc2nc([C@@H]3CCCN3C(=O)c3cc(C)ccc3-n3nccn3)[nH]c2c1 [Ex. 1.16] | 245 | 5
17 | CSc1ccc2nc([C@@H]3CCCN3C(=O)c3cc(C)ccc3-n3nccn3)[nH]c2c1 [Ex. 1.17] | 97 | 8
18 | COc1ccc2nc([C@@H]3CCCN3C(=O)c3nc(C)sc3-c3ccc(Br)cc3)[nH]c2c1 [Ex. 1.18] | 935 | 153
19 | COc1ccc2nc([C@@H]3CCCN3C(=O)c3nc(C)sc3-c3cccc(Cl)c3Cl)[nH]c2c1 [Ex. 1.19] | 660 | 76
20 | COc1cccc(-c2sc(C)nc2C(=O)N2CCC[C@H]2c2nc3ccc(OC)cc3[nH]2)c1 [Ex. 1.20] | 692 | 121
21 | COc1ccc2nc([C@@H]3CCCN3C(=O)c3nc(C)sc3-c3cccc(F)c3)[nH]c2c1 [Ex. 1.21] | 1180 | 149
22 | Cc1nc(C(=O)N2CCCC2c2nc3cc(F)c(Cl)cc3[nH]2)c(-c2cccc(Cl)c2)s1 (stereo not shown) [Ex. 1.98] | 105 | –
23 | CO[C@H]1CN(C(=O)c2cc(C)c(C)cc2-n2nccn2)C(C)(c2nc3c(C)c(Cl)ccc3[nH]2)C1 (stereo partly shown) [Ex. 3.48] | – | 4

Other lines, results leading:

Row | IC50 (human orexin-1 receptor) [nM] | IC50 (human orexin-2 receptor) [nM] | Compound
24 | 24 | 2 | C=C1CC(c2nc3cc(OC)ccc3[nH]2)N(C(=O)c2cc(C)sc2-c2ccc(C)c(C)c2)C1 (racemic) [Ex. 6.71]
25 | 4 | 6 | C=C1CC(c2nc3cccc(SC)c3[nH]2)N(C(=O)c2cc(C)sc2-c2ccc(C)c(C)c2)C1 (racemic) [Ex. 6.72]
26 | 8 | 4 | C=C1CC(c2nc3cc(C)c(C)cc3[nH]2)N(C(=O)c2cc(C)sc2-c2ccc(C)c(C)c2)C1 (racemic) [Ex. 6.75]
27 | 13 | 19 | C=C1CC(c2nc3cc(Cl)c(C)cc3[nH]2)N(C(=O)c2cc(C)sc2-c2ccc(C)c(C)c2)C1 (racemic) [Ex. 6.80]
28 | 8 | 23 | C=C1CC(c2nc3c(OC)ccc(OC)c3[nH]2)N(C(=O)c2cc(C)sc2-c2ccc(C)c(C)c2)C1 (racemic) [Ex. 6.83]
29 | 22 | 20 | C=C1CC(c2nc3cc(OC)ccc3[nH]2)N(C(=O)c2nc(C3CC3)sc2-c2cccc(C)c2)C1 (racemic) [Ex. 6.86]
30 | 1 | 2 | C=C1CC(c2nc3cccc(SC)c3[nH]2)N(C(=O)c2nc(C3CC3)sc2-c2cccc(C)c2)C1 (racemic) [Ex. 6.87]
31 | 4 | 2 | C=C1CC(c2nc3c(C)c(C)ccc3[nH]2)N(C(=O)c2nc(C3CC3)sc2-c2cccc(C)c2)C1 (racemic) [Ex. 6.92]
32 | 9 | 2 | C=C1CC(c2nc3cc(Cl)c(C)cc3[nH]2)N(C(=O)c2nc(C3CC3)sc2-c2cccc(C)c2)C1 (racemic) [Ex. 6.95]
33 | 14 | 10 | C=C1CC(c2nc3cc(Cl)c(C(F)(F)F)cc3[nH]2)N(C(=O)c2nc(C3CC3)sc2-c2cccc(C)c2)C1 (racemic) [Ex. 6.97]
34 | 5 | 1 | C=C1CC(c2nc3cccc(Cl)c3[nH]2)N(C(=O)c2nc(C3CC3)sc2-c2cccc(C)c2)C1 (racemic) [Ex. 6.99]
35 | 21 | 75 | C=C1CN(C(=O)c2nc(C)sc2-c2ccc(C)c(C)c2)C(C)(c2nc3cc(OC)ccc3[nH]2)C1 (racemic) [Ex. 6.145]
36 | 16 | 33 | C=C1CN(C(=O)c2nc(C)sc2-c2ccc(Cl)cc2)C(C)(c2nc3cc(OC)ccc3[nH]2)C1 (racemic) [Ex. 6.146]
37 | 46 | 44 | C=C1CN(C(=O)c2ccccc2-c2ccc(F)c(C)c2)C(C)(c2nc3cc(OC)ccc3[nH]2)C1 (racemic) [Ex. 6.151]
38 | 32 | 38 | C=C1CN(C(=O)c2nc(C)sc2-c2ccccc2)C(C)(c2nc3cc(OC)ccc3[nH]2)C1 (racemic) [Ex. 6.154]
39 | 2 | – | Cc1ccc(-n2nccn2)c(C(=O)N2CC[C@H](C)[C@H]2c2nc3c(C)c(Cl)ccc3[nH]2)c1F [Ex. 4.68]
40 | – | 635 | Cc1nc(C(=O)N2CC[C@H](C)[C@H]2c2nc3cc(C(F)(F)F)ccc3[nH]2)c(-c2ccc(C)c(C)c2)s1 [Ex. 4.145]
41 | – | 80 | Cc1ccc(-c2sc(C)nc2C(=O)N2CC[C@H](C)[C@H]2c2nc3c(C(F)(F)F)cccc3[nH]2)cc1 [Ex. 4.153]
42 | 117 | – | C[C@@]1(c2nc3cc(F)c(Br)cc3[nH]2)CCCN1C(=O)c1cc(F)ccc1-n1nccn1 [Ex. 5.126]
43 | – | 6 | Cc1cc(C(=O)N2CCC[C@@]2(C)c2nc3cc(C(F)(F)F)c(Cl)cc3[nH]2)c(-n2nccn2)cc1C [Ex. 5.137]
44 | – | 8 | Cc1nc(C(=O)N2CCC[C@@]2(C)c2nc3c(C)c(C)c(Br)cc3[nH]2)c(-c2cc(F)cc(F)c2)s1 [Ex. 5.274]
45 | – | 8 | Cc1ccc(-c2ncccn2)c(C(=O)N2CCC[C@@]2(C)c2nc3cc(C(F)(F)F)c(Cl)cc3[nH]2)c1 [Ex. 5.279]
46 | 87 | – | Cc1ccc(-c2ncccn2)c(C(=O)N2CCC[C@@]2(C)c2nc3ccc(F)c(F)c3[nH]2)c1 [Ex. 5.283]
